In patent US10844077B2, “Thiazolyl-containing compounds for treating proliferative diseases” (Dana-Farber Cancer Institute, Inc., priority 2014, dated 2020):
Like-named read-outs stand apart in the source and are kept apart here.

Experiments:
Assay type in all cases: cell-based
kinases in BCWM.1 cells [1] = biological target: kinases in BCWM.1 cells (Homo sapiens, UniProt O00329); settings: PIK3CD; ATP; 1 μM, 90 min; GF
Description: (§1) The cells were harvested and lysed. […] Bound kinases were identified and quantitated by ACTIVX as described in Patricelli et al., Biochemistry, 2007, 46(2): 350-358. The compounds were tested in duplicates against duplicate or quadruplicate control samples.

kinases in BCWM.1 cells [2] = biological target: kinases in BCWM.1 cells (Homo sapiens, UniProt O00750); settings: PIK3C2B; ATP; 1 μM, 90 min; GF
Description: as §1

kinases in BCWM.1 cells [3] = biological target: kinases in BCWM.1 cells (Homo sapiens, UniProt O15530); settings: PDK1; Lys1; 1 μM, 90 min; GF
Description: as §1

kinases in BCWM.1 cells [4] = biological target: kinases in BCWM.1 cells (Homo sapiens, UniProt O43318); settings: TAK1; Lys2; 1 μM, 90 min; GF
Description: as §1

kinases in BCWM.1 cells [5] = biological target: kinases in BCWM.1 cells (Homo sapiens, UniProt O75385); settings: ULK1; Lys2; 1 μM, 90 min; GF
Description: as §1

kinases in BCWM.1 cells [6] = biological target: kinases in BCWM.1 cells (Homo sapiens, UniProt P04049); settings: RAF1; Lys2; 1 μM, 90 min; GF
Description: as §1

kinases in BCWM.1 cells [7] = biological target: kinases in BCWM.1 cells (Homo sapiens, UniProt P30291); settings: Wee1; Lys2; 1 μM, 90 min; GF
Description: as §1

kinases in BCWM.1 cells [8] = biological target: kinases in BCWM.1 cells (Homo sapiens, UniProt P42680); settings: TEC; Activation Loop; 1 μM, 90 min; GF
Description: as §1

kinases in BCWM.1 cells [9] = biological target: kinases in BCWM.1 cells (Homo sapiens, UniProt P43405); settings: SYK; Activation Loop; 1 μM, 90 min; GF
Description: as §1

kinases in BCWM.1 cells [10] = biological target: kinases in BCWM.1 cells (Homo sapiens, UniProt P48736); settings: PIK3CG; ATP; 1 μM, 90 min; GF
Description: as §1

kinases in BCWM.1 cells [11] = biological target: kinases in BCWM.1 cells (Homo sapiens, UniProt P51957); settings: NEK4; Lys2; 1 μM, 90 min; GF
Description: as §1

kinases in BCWM.1 cells [12] = biological target: kinases in BCWM.1 cells (Homo sapiens, UniProt P53350); settings: PLK1; Lys1; 1 μM, 90 min; GF
Chain of kinases in BCWM.1 cells (Homo sapiens, UniProt P53350) (P53350 2-603 limits assumed): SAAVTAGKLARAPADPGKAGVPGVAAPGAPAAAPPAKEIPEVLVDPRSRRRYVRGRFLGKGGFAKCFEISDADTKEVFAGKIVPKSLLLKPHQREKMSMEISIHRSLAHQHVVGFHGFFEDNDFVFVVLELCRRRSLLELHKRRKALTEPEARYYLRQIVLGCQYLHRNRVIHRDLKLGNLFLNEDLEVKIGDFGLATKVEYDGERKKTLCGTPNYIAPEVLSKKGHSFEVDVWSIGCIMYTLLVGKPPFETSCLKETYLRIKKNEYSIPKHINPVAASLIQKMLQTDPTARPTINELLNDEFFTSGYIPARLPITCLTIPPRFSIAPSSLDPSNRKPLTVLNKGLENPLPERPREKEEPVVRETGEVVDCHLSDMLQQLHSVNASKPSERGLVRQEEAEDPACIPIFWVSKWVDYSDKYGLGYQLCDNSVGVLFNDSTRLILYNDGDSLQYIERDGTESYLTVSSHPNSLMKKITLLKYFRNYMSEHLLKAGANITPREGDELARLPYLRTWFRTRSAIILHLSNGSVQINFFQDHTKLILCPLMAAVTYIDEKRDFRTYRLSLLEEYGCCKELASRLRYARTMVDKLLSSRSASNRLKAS
Description: as §1

kinases in BCWM.1 cells [13] = biological target: kinases in BCWM.1 cells (Homo sapiens, UniProt Q13464); settings: ROCK1; Protein Kinase Domain; 1 μM, 90 min; GF
Chain of kinases in BCWM.1 cells (Homo sapiens, UniProt Q13464) (Q13464 2-1354 limits assumed): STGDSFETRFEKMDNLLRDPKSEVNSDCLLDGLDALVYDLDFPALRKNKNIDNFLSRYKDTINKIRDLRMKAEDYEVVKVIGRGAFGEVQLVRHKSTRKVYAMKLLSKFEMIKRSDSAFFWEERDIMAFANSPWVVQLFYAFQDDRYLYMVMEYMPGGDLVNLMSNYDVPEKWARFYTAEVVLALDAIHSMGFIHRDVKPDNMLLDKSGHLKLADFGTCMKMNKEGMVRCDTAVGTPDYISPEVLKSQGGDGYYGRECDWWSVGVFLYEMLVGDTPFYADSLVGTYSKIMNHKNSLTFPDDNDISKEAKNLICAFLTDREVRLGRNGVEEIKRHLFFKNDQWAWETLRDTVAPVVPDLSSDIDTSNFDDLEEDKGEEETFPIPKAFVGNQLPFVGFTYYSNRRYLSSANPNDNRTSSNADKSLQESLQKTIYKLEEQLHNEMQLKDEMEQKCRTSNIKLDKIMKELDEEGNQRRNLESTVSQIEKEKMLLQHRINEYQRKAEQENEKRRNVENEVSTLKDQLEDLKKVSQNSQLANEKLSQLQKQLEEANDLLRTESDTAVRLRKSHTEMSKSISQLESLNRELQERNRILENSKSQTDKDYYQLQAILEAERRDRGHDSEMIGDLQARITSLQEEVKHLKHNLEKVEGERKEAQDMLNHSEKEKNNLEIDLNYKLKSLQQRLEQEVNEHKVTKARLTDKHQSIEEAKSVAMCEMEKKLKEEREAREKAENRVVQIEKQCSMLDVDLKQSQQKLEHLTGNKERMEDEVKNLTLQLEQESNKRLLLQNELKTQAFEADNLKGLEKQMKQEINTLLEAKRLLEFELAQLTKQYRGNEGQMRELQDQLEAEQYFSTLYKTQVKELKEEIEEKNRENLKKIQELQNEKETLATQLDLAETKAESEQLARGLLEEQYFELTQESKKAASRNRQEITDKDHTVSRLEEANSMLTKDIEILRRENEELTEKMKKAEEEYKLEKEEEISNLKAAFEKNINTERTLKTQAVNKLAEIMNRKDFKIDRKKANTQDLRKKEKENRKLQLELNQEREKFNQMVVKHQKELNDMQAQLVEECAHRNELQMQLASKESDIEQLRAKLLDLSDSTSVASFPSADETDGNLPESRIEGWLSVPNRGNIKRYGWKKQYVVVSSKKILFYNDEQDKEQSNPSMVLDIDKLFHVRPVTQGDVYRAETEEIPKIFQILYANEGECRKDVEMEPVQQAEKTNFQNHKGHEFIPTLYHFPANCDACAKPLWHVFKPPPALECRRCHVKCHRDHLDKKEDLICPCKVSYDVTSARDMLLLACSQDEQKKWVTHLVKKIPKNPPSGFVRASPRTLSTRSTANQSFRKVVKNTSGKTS
Description: as §1

kinases in BCWM.1 cells [14] = biological target: kinases in BCWM.1 cells (Homo sapiens, UniProt Q13523); settings: PRP4; Lys2; 1 μM, 90 min; GF
Description: as §1

kinases in BCWM.1 cells [15] = biological target: kinases in BCWM.1 cells (Homo sapiens, UniProt Q15349); settings: RSK3 domain1; Lys2; 1 μM, 90 min; GF
Description: as §1

kinases in BCWM.1 cells [16] = biological target: kinases in BCWM.1 cells (Homo sapiens, UniProt Q16539); settings: p38a, 1 μM, 90 min, GF
Chain of kinases in BCWM.1 cells (Homo sapiens, UniProt Q16539) (Q16539 2-360 limits assumed): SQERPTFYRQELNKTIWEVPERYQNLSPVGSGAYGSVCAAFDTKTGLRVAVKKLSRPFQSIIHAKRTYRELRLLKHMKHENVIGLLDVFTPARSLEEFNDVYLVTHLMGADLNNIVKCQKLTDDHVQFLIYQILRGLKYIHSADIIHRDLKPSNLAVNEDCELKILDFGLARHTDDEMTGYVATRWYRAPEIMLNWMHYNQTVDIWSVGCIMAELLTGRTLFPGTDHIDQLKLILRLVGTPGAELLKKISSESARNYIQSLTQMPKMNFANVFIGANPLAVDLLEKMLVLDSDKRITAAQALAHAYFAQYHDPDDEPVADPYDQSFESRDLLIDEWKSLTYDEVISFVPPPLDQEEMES
Description: as §1

kinases in BCWM.1 cells [17] = biological target: kinases in BCWM.1 cells (Homo sapiens, UniProt Q6PHR2); settings: ULK3; Lys2; 1 μM, 90 min; GF
Description: as §1

kinases in BCWM.1 cells [18] = biological target: kinases in BCWM.1 cells (Homo sapiens, UniProt Q86Y07); settings: VRK2; Lys2; 1 μM, 90 min; GF
Description: as §1

kinases in BCWM.1 cells [19] = biological target: kinases in BCWM.1 cells (Homo sapiens, UniProt Q8NEB9); settings: PIK3C3; ATP; 1 μM, 90 min; GF
Description: as §1

kinases in BCWM.1 cells [20] = biological target: kinases in BCWM.1 cells (Homo sapiens, UniProt Q8TD19); settings: NEK9; Lys2; 1 μM, 90 min; GF
Chain of kinases in BCWM.1 cells (Homo sapiens, UniProt Q8TD19) (Q8TD19 2-979 limits assumed): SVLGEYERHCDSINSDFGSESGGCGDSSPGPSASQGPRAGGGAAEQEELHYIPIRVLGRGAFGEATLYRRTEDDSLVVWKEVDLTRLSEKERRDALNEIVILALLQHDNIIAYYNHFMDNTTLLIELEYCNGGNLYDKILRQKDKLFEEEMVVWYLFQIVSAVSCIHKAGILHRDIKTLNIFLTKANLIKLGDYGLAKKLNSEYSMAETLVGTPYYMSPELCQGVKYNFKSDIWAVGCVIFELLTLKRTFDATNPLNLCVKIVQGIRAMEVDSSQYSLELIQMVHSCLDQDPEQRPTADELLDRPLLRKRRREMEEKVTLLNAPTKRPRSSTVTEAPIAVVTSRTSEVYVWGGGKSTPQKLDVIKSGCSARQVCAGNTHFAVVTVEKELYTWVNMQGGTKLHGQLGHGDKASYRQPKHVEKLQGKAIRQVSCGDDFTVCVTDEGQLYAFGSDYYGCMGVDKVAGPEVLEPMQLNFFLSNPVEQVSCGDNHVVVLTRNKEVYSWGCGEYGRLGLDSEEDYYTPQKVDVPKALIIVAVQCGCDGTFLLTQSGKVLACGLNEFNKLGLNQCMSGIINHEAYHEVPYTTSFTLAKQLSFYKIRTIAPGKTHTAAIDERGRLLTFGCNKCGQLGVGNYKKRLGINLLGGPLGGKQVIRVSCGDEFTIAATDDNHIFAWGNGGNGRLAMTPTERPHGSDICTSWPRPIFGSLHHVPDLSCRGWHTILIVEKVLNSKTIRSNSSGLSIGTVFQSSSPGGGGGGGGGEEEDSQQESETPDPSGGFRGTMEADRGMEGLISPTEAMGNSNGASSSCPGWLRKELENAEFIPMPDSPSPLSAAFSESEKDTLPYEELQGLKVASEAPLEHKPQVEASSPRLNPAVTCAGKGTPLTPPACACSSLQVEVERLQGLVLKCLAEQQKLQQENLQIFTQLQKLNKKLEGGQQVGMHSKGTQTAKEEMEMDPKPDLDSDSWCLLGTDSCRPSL
Description: as §1

kinases in BCWM.1 cells [21] = biological target: kinases in BCWM.1 cells (Homo sapiens, UniProt Q8TDX7); settings: NEK7; Lys1; 1 μM, 90 min; GF
Description: as §1

kinases in BCWM.1 cells [22] = biological target: kinases in BCWM.1 cells (Homo sapiens, UniProt Q96BR1); settings: SGK3; Lys1; 1 μM, 90 min; GF
Description: as §1

kinases in BCWM.1 cells [23] = biological target: kinases in BCWM.1 cells (Homo sapiens, UniProt Q96Q15); settings: SMG1; ATP; 1 μM, 90 min; GF
Description: as §1

kinases in BCWM.1 cells [24] = biological target: kinases in BCWM.1 cells (Homo sapiens, UniProt Q9BZL6); settings: PKD2; Lys1; 1 μM, 90 min; GF
Description: as §1

kinases in BCWM.1 cells [25] = biological target: kinases in BCWM.1 cells (Homo sapiens, UniProt Q9NYL2); settings: ZAK; Lys1; 1 μM, 90 min; GF
Chain of kinases in BCWM.1 cells (Homo sapiens, UniProt Q9NYL2) (Q9NYL2 2-800 limits assumed): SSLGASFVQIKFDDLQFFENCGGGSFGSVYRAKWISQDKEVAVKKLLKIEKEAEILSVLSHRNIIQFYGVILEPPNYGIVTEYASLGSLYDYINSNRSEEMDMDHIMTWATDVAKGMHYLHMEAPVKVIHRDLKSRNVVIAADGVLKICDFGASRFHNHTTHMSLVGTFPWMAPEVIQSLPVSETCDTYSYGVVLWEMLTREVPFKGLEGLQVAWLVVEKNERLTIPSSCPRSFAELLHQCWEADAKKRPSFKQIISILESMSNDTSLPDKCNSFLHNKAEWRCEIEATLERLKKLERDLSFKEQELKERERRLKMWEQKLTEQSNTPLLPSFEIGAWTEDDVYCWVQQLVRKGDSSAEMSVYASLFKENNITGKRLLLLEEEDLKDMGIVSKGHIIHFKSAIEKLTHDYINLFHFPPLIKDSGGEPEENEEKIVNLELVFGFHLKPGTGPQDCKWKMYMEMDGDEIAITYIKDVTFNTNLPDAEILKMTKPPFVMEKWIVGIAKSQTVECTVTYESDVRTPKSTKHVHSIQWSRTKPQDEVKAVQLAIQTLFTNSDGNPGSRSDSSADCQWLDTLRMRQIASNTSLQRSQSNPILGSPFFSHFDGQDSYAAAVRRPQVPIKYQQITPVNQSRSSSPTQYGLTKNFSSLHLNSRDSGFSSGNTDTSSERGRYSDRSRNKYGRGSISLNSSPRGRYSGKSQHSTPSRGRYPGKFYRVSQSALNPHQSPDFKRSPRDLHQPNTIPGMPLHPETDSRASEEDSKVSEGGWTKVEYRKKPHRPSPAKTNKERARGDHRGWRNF
Description: as §1

kinases in BCWM.1 cells [26] = biological target: kinases in BCWM.1 cells (Homo sapiens, UniProt Q9UBF8); settings: PI4KB; ATP; 1 μM, 90 min; GF
Chain of kinases in BCWM.1 cells (Homo sapiens, UniProt Q9UBF8) (Q9UBF8 2-816 limits assumed): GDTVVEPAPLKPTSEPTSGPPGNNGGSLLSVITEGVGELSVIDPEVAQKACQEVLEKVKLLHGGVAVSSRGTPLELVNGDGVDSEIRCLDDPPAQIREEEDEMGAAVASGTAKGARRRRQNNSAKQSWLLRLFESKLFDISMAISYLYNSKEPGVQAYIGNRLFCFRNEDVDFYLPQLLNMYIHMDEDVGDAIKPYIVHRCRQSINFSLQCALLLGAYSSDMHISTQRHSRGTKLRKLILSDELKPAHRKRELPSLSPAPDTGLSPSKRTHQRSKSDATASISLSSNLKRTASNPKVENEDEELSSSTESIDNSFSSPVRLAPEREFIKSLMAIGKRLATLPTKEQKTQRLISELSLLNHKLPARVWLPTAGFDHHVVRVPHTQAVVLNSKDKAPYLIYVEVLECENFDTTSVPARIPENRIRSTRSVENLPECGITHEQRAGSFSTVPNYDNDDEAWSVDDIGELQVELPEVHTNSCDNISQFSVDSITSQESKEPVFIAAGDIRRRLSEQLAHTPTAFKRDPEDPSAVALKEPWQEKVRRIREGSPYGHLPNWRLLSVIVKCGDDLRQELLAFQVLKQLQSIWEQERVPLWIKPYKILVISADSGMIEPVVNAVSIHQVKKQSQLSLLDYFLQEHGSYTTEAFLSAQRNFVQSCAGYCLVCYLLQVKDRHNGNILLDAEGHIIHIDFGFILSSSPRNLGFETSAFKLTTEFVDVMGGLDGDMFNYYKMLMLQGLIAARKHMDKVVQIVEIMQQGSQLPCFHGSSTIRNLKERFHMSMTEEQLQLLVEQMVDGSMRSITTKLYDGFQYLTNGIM
Description: as §1

kinases in BCWM.1 cells [27] = biological target: kinases in BCWM.1 cells (Homo sapiens, UniProt Q9UBS0); settings: p70S6Kb; Lys2; 1 μM, 90 min; GF
Description: as §1

kinases in BCWM.1 cells [28] = biological target: kinases in BCWM.1 cells (Homo sapiens, UniProt Q9UKE5); settings: ZC2/TNIK; Lys1; 1 μM, 90 min; GF
Description: as §1

kinases in BCWM.1 cells [29] = biological target: kinases in BCWM.1 cells (Homo sapiens, UniProt Q9UKI8); settings: TLK1; Lys2; 1 μM, 90 min; GF
Description: as §1

Row | Structure (SMILES) | % change of MS signal compared to control sample (kinases in BCWM.1 cells [1]) [%] | % change of MS signal compared to control sample (kinases in BCWM.1 cells [2]) [%] | % change of MS signal compared to control sample (kinases in BCWM.1 cells [3]) [%] | % change of MS signal compared to control sample (kinases in BCWM.1 cells [4]) [%] | % change of MS signal compared to control sample (kinases in BCWM.1 cells [5]) [%] | % change of MS signal compared to control sample (kinases in BCWM.1 cells [6]) [%] | % change of MS signal compared to control sample (kinases in BCWM.1 cells [7]) [%] | % change of MS signal compared to control sample (kinases in BCWM.1 cells [8]) [%] | % change of MS signal compared to control sample (kinases in BCWM.1 cells [9]) [%] | % change of MS signal compared to control sample (kinases in BCWM.1 cells [10]) [%] | % change of MS signal compared to control sample (kinases in BCWM.1 cells [11]) [%] | % change of MS signal compared to control sample (kinases in BCWM.1 cells [12]) [%] | % change of MS signal compared to control sample (kinases in BCWM.1 cells [13]) [%] | % change of MS signal compared to control sample (kinases in BCWM.1 cells [14]) [%] | % change of MS signal compared to control sample (kinases in BCWM.1 cells [15]) [%] | % change of MS signal compared to control sample (kinases in BCWM.1 cells [16]; Lys2) [%] | % change of MS signal compared to control sample (kinases in BCWM.1 cells [16]; Protein Kinase Domain) [%] | % change of MS signal compared to control sample (kinases in BCWM.1 cells [17]) [%] | % change of MS signal compared to control sample (kinases in BCWM.1 cells [18]) [%] | % change of MS signal compared to control sample (kinases in BCWM.1 cells [19]) [%] | also measured
1 | C=CC(=O)N1CC[C@H](Nc2nccc(Nc3ncc(C(=O)Nc4c(C)cccc4C)s3)n2)C1 [Example I-3] | −17.2 | 39.1 | −3.5 | −2.5 | −8.2 | 9.9 | −6.5 | >91 | −1.1 | −3.4 | 7.3 | −23 | −16.9 | −6.2 | −19 | 70 | 67.9 | −47.2 | 5.7 | −0.8 | % change of MS signal compared to control sample (kinases in BCWM.1 cells [20]): −9.9%; % change of MS signal compared to control sample (kinases in BCWM.1 cells [21]): −14.7%; % change of MS signal compared to control sample (kinases in BCWM.1 cells [22]): −18.5%; % change of MS signal compared to control sample (kinases in BCWM.1 cells [23]): −36.7%; % change of MS signal compared to control sample (kinases in BCWM.1 cells [24]): −1.4%; % change of MS signal compared to control sample (kinases in BCWM.1 cells [25]): 21.2%; % change of MS signal compared to control sample (kinases in BCWM.1 cells [26]): −4.1%; % change of MS signal compared to control sample (kinases in BCWM.1 cells [27]): 6.8%; % change of MS signal compared to control sample (kinases in BCWM.1 cells [28]): 32.9%; % change of MS signal compared to control sample (kinases in BCWM.1 cells [29]): −6.9%
2 | CCC(=O)N1CC[C@H](Nc2nccc(Nc3ncc(C(=O)Nc4c(C)cccc4C)s3)n2)C1 [Example I-9] | −9.7 | 12.7 | −6.6 | 1 | −1.7 | −9.2 | 8.6 | 40.8 | −6.1 | −9.6 | −1.7 | 9.6 | −2.1 | −15.7 | −4.1 | 9.8 | 8.7 | −9.6 | −1.6 | −9.4 | % change of MS signal compared to control sample (kinases in BCWM.1 cells [20]): −12.6%; % change of MS signal compared to control sample (kinases in BCWM.1 cells [21]): 8%; % change of MS signal compared to control sample (kinases in BCWM.1 cells [22]): −1.1%; % change of MS signal compared to control sample (kinases in BCWM.1 cells [23]): −1%; % change of MS signal compared to control sample (kinases in BCWM.1 cells [24]): −4.2%; % change of MS signal compared to control sample (kinases in BCWM.1 cells [25]): 12.1%; % change of MS signal compared to control sample (kinases in BCWM.1 cells [26]): −3.1%; % change of MS signal compared to control sample (kinases in BCWM.1 cells [27]): 3.1%; % change of MS signal compared to control sample (kinases in BCWM.1 cells [28]): 11.4%; % change of MS signal compared to control sample (kinases in BCWM.1 cells [29]): −2.3%
